Source: patent publication US5250537A, “5,6,7,8,9,10-hexahydro-7 ,10-iminocyclohept[b]indole,-6,7,8,9,10-hexahydro-7,11-imino-5H-cyclooct[ b]indole and substituted derivatives” (Scios Nova Inc., priority 1992, dated 1993)
Where two headings read alike, the source gives them in different places.

Legend:
[1] = target: sigma receptor ([3H]DTG site); test: In Vitro Sigma Receptor Binding, [3H]DTG; conditions: guinea pig brain; 45 minutes at 25° C.
Protocol: (§1) For both assays frozen guinea pig brains (PelFreez Biologicals, Rogers, AK) were thawed and homogenized in 10 volumes (w/v) of ice cold 0.32M sucrose using 10 strokes of a motor-drivenglass-fitted teflon pestle adjusted to 600 rpm. The homogenate was centrifuged (4° C.) at 900× g for 10 minutes and the resultant supernatant collected and centrifuged at 22,000×g for 20 minutes. The pellet obtained from the centrifugation was resuspended in 10 volumes of 50 mM Tris HCl (pH 7.4, 25° C.) and incubated for 30 minutes at 37° C. Following the preincubation, the homogenate was centrifuted at 22,000×g for 20 minutes and the final pellet was resuspended in buffer to a protein concentration of 0.5-1.0 mg/mL for use in the assay.
(§2) Binding reactions were initiated by the addition of tissue (800 μL) to tubes containing assay buffer, the radioligand (final concentration 1-3 nM) and the compound of interest. Haloperidol (10 μM) and (+)-3-PPP (10 μM) were used to determine the levels of […] [^3 H]DTG and [^3 H](+)PPP binding, respectively. Final assay volume was 1 mL. Reactions were allowed to proceed for 45 minutes at 25° C. and terminated by rapid filtration over Whatman GF/B filters which were washed 3 times with 5 mL of cold buffer. Radioactivity trapped on the filters was determined using routine methods. […] All assays were performed using triplicate determinations. For comparison purposes, IC50 values are reported rather than Ki values.

[2] = target: T1, sigma receptor ([3H](+)-3-PPP site) (Cavia porcellus, UniProt Q60492); test: In Vitro Sigma Receptor Binding, [3H](+)-3-PPP; design: species or system guinea pig; conditions: 45 minutes at 25° C.
T1 construct: frozen guinea pig brains; tissue PelFreez Biologicals, Rogers, AK; host or cells: guinea pig brain membranes
T1 sequence (Q60492 whole entry): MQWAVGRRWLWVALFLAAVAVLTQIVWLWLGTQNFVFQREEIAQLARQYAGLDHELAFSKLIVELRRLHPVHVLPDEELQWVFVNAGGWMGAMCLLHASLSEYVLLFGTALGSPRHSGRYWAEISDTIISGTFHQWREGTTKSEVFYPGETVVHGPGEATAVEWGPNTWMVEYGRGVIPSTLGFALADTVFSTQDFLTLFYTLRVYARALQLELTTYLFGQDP
Protocol: as §1, §2

dopamine (D-2) receptors = target: T2, dopamine (D-2) receptors (Rattus norvegicus, UniProt P61169); test: In Vitro Dopamine (D-2) Receptor Binding, [3H]sulpiride; conditions: read-out: Dopamine D-2 [3H]sulpiride Ki
T2 construct: the corpus striatum was dissected and homogenized; from tissue; host or cells: rat corpus striatum membranes
T2 sequence (P61169 whole entry): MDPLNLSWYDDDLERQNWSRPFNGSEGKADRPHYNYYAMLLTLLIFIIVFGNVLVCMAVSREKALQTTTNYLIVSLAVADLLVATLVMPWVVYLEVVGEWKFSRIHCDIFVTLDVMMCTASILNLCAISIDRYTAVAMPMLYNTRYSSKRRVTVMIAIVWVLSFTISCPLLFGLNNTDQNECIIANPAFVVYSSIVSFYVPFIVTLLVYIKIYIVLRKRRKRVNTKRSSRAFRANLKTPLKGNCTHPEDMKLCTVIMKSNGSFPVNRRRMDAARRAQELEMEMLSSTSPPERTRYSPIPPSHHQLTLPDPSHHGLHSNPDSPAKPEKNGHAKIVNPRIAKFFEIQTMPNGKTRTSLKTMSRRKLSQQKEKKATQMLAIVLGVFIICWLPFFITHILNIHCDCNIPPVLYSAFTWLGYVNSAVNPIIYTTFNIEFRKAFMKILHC
Protocol: On the day of assay, rats were sacrificed by decapitation, the corpus striatum was dissected and homogenized in 20 volumes of ice-cold 50 mM Tris HCl (pH 7.5, 25° C.). The homogenate was centrifuged (4° C.) at 48,000×g for 10 minutes and the resulting pellet was resuspended in 20 volumes of fresh buffer and recentrifuged. […] A portion of the suspension (800 μL) was added in triplicate to tubes containing 3 nM [^3 H]sulpiride and the test compound. The final assay volume was 1 mL; haloperidol (10 μM) was used to determine non-specific binding. Following a 60 minute incubation at 25° C., the reactions were terminated by rapid filtration over Whatman GF/B filters which had been pretreated in a solution of 0.3% (w/v) of aqueous polyethylenimine. Filters were washed three times using 5 mL of ice-cold buffer and processed using standard procedures to determine radioactivity. IC50 values were obtained from concentration-response curves in which a number of concentrations of test compound were examined. Ki values were determined using the Cheng-Prusoff equation.

[3] = target: T3, serotonin 5-HT2 receptors (Rattus norvegicus, UniProt P14842); test: In Vitro Serotonin (5-HT2) Receptor Binding, [3H]ketanserin; conditions: for Ki: rat cortical membranes, 1 nM [3H]ketanserin
T3 construct: Rat cortical synaptosomal membranes were prepared on the day of assay; from tissue; host or cells: rat frontal cortex synaptosomal membranes
T3 sequence (P14842 whole entry): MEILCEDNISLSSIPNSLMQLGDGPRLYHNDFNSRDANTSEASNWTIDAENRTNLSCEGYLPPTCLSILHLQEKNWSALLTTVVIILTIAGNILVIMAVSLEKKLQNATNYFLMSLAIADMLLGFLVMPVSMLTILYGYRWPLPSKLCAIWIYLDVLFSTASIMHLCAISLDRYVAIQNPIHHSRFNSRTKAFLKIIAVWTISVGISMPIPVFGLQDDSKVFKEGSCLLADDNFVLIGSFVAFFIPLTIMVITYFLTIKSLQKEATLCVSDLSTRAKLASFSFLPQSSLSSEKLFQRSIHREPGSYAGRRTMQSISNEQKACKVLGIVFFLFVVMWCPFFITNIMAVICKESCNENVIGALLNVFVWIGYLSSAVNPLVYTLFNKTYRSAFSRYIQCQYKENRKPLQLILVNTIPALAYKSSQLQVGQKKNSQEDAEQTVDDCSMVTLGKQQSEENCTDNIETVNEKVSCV
Protocol: The potency of compounds to inhibit the specific binding of [^3 H]ketanserin (84.2 Ci/mM) to serotonin 5-HT2 receptors was determined as detailed previously [J. E. Leysen, C. J. E. Niemegers, J. M. Van Neuten and P. M. Laduron, Mol. Pharmacol., 21, 301-314 (1982)]. Rat cortical synaptosomal membranes were prepared on the day of assay. Animals were sacrified by decapitation, the frontal cortex was removed and homogenized in 10 volumes (w/v) of ice-cold 0.32M sucrose using a motor driven teflon pestle fitted to a glass tube. The synaptosomal pellet was suspended in 50 mM Tris HCl (pH 7.6 at 25° C.) to a concentration of 7.5 mg original wet weight/mL. For the binding reaction, 400 μL of this tissue suspension was added to polypropylene tubes containing 50 mM Tris HCl and [^3 H]ketanserin (final concentration of 1 nM) in a final assay volume of 0.5 mL. Following a 15 minute incubation at 37° C., the binding reaction was terminated by rapid vacuum filtration over Whatman GF/B filters (presoaked in 0.1% PEI) followed by 3×4 mL washes with ice cold 50 mM Tris HCl. Nonspecific binding was assessed in the presence of 10 μM methysergide. All incubations were performed in triplicate. IC50 values were determined using log logit analysis.

dopamine receptors = test: In Vivo Dopamine Antagonist Activity (inhibition of apomorphine-induced climbing); design: species or system mice (CF-1); conditions: oral administration; apomorphine 3 mg/kg sc
[4] = In vivo Cataleptic Activity; design: species or system mice (CF-1); conditions: for catalepsy (in words): any dose tested, oral
Protocol: (§3) The potency of selected compounds to produce catalepsy and motor impairment was evaluated according to the following methods. Groups of male CF-1 mice (Harlan Sprague-Dawley, Inc.), weighing 25-30 g, were food-deprived for 3-5 hours prior to oral administration of the compound of interest. These agents were suspended in 10% DMSO/10% Tween/80% distilled water vehicle and administered in a volume of 0.01 mL/g body weight. Fifty-five minutes after oral (po) administration, the presence or absence of catalepsy was determined by placing the forepaws on a rod (6 mm diameter) mounted 39 mm above the floor of the test chamber. Pressure was applied to immobilize the subject with its back in a concave position. Following removal of pressure, the latency to recover normal posture, as defined by the return of at least one forepaw to the floor of the chamber, or the placement of one hindlimb on the bar, was recorded. Mice were tested three times and considered cataleptic if recovery was not apparent within 30 seconds during any of the three trials. Following determination of catalepsy and at 60 minutes post administration of compound, motor impairment was determined by placing mice on a rotating knurled bar (Rotorod, Ugo Basile model 7600; 6-7 revolutions per minute; 3.8 cm diameter). Mice were tested up to three times; mice failing to remain on the bar for 60 sec during all three tests were considered impaired.

[5] = Motor impairment (rotorod); type: in vivo, mice (CF-1); conditions: for dose at which impairment of rotorod performance was noted: oral
Protocol: as §3

dopamine D-2 receptors = conditions: Snyder and Largent 1988; cited from earlier work
sigma receptors = conditions: Snyder and Largent 1988; cited from earlier work
[6] = guinea pig brain, read-out: Sigma [3H](+)-3-PPP binding IC50
[7] = rat corpus striatum, 3 nM [3H]sulpiride
[8] = read-out: Serotonin 5-HT2 [3H]ketanserin, value @ 1 μM
[9] = read-out: Serotonin 5-HT2 [3H]ketanserin, % @ 1 μM

O=C(CCCN1C2CCC1c1c(n(-c3ccccc3)c3ccccc13)C2)c1ccc(F)cc1 (stereo not drawn) [2 H Ph (CH2)3 CO 4-FPh 2]
IC50 [1]: 528 nM | IC50 [2, 6]: 510 nM | Ki (dopamine (D-2) receptors; [7]): 840 nM | Ki [3]: 814 nM

OCCCN1C2CCC1c1c([nH]c3ccc(F)cc13)C2 (stereo not drawn) [4 F H (CH2)3 OH 2]
IC50 [1]: 317 ± 49 nM | IC50 [2, 6]: 1380 ± 188 nM | Ki (dopamine (D-2) receptors; [7]): 37300 nM | inhibition at 1 µM [3, 8]: 5.6%

Fc1ccc2[nH]c3c(c2c1)C1CCC(C3)N1Cc1ccccc1 (stereo not drawn) [4 F H CH2 Ph 2]
IC50 [1]: 86 ± 14 nM | IC50 [2, 6]: 908 ± 222 nM | Ki (dopamine (D-2) receptors; [7]): 3740 nM | inhibition at 1 µM [3, 9]: 3.3%

CC(C)n1c2c(c3ccccc31)C1CCC(C2)N1CCCCc1ccccc1 (stereo not drawn) [5 H 2-Pr (CH2)4 Ph 2]
IC50 [1]: 231 nM | IC50 [2, 6]: 705 ± 20 nM | Ki (dopamine (D-2) receptors; [7]): 2640 ± 270 nM | inhibition at 1 µM [3, 9]: 46%

c1ccc(CCCCN2C3CCC2c2c(n(Cc4ccccc4)c4ccccc24)C3)cc1 (stereo not drawn) [5 H Bn (CH2)4 Ph 2]
IC50 [1]: 267 ± 87 nM | IC50 [2, 6]: 396 ± 92 nM | Ki (dopamine (D-2) receptors; [7]): 1830 nM | Ki [3]: 506 nM

O=C1c2ccccc2C(=O)N1CCCN1C2CCC1c1c([nH]c3ccc(F)cc13)C2 (stereo not drawn) [6 F H (CH2)3 2-phthalimido 2]
IC50 [1]: 836 nM | IC50 [2, 6]: 3330 ± 1810 nM | Ki (dopamine (D-2) receptors; [7]): 12300 ± 1700 nM | inhibition at 1 µM [3, 8]: 4.9%

O=C(COc1ccc(Cl)c(Cl)c1)N1C2CCC1c1c([nH]c3ccccc13)C2 (stereo not drawn) [7 H H COCH2 O-3,4-Cl2 Ph 2]
IC50 [1]: > 10000 nM | IC50 [2, 6]: > 10000 nM | Ki (dopamine (D-2) receptors; [7]): 64500 nM | inhibition at 1 µM [3, 9]: 24.7%

Fc1ccc(CCCCN2C3CCCC2c2c([nH]c4ccc(F)cc24)C3)cc1 (stereo not drawn) [11 F H (CH2)4 4-FPh 3]
IC50 [1]: 61 nM | IC50 [2, 6]: 150 nM | Ki (dopamine (D-2) receptors; [7]): 1470 nM | Ki [3]: 205 nM

Fc1ccc(C(=CCCN2C3CCCC2c2c([nH]c4ccccc24)C3)c2ccc(F)cc2)cc1 (stereo not drawn) [11 H H (CH2)2 CHC (4-FPh)2 3]
IC50 [1]: 1880 nM | IC50 [2, 6]: > 10000 nM | Ki (dopamine (D-2) receptors; [7]): 2310 nM | Ki [3]: > 1000 nM

O=C(CCCN1C2CCCC1c1c([nH]c3ccccc13)C2)c1ccc(F)cc1 (stereo not drawn) [11 H H (CH2)3 CO 4-FPh 3]
IC50 [1]: 43 nM | IC50 ([2]; Sigma [3H](+)-3-PPP binding IC50, guinea pig brain): 89 nM | Ki (dopamine (D-2) receptors; [7]): 38 nM | Ki [3]: 0.46 nM

Fc1ccc(CCCCN2C3CCCC2c2c([nH]c4ccccc24)C3)cc1 (stereo not drawn) [11 H H (CH2)4 4-FPh 3]
IC50 [1]: 64 nM | IC50 [2, 6]: 279 nM | Ki (dopamine (D-2) receptors; [7]): 915 nM | Ki [3]: 23.6 nM

Fc1ccc(C(=CCCN2C3CCCC2c2c([nH]c4ccc(F)cc24)C3)c2ccc(F)cc2)cc1 (stereo not drawn) [12 F H (CH2)2 CHC (4-FPh)2 3]
IC50 [1]: 1910 nM | IC50 [2, 6]: 10000 nM | Ki (dopamine (D-2) receptors; [7]): 3730 nM | Ki [3]: 625 nM

O=C(CCCN1C2CCCC1c1c([nH]c3ccc(F)cc13)C2)c1ccc(F)cc1 (stereo not drawn) [12 F H (CH2)3 CO 4-FPh 3]
IC50 [1]: 23 nM | IC50 [2, 6]: 103 nM | Ki (dopamine (D-2) receptors): 200 nM | Ki [3]: 2.5 nM

Fc1ccc2[nH]c3c(c2c1)C1CCCC(C3)N1CCCCc1ccccc1 (stereo not drawn) [12 F H (CH2)4 Ph 3]
IC50 [1]: 42 nM | IC50 [2, 6]: 117 nM | Ki (dopamine (D-2) receptors; [7]): 1870 nM | Ki [3]: 172 nM

Fc1ccc2[nH]c3c(c2c1)C1CCCC(C3)N1 (stereo not drawn) [12 F H -- H 3]
IC50 [1]: 509 nM | IC50 [2, 6]: 305 nM | Ki (dopamine (D-2) receptors; [7]): 58300 nM | Ki [3]: 3000 nM

O=C(CCCCN1C2CCC1c1c([nH]c3ccccc13)C2)c1ccc(F)cc1 (stereo not drawn) [Example 1 H H (CH2)4 CO 4-FPh 2, 11-[5-(4-fluorophenyl)-5-oxopentyl]-5,6,7,8,9,10-hexahydro-7,10-iminocyclohept[b]indole]
potency (ED50) to inhibit apomorphine-induced climbing (dopamine receptors): 15.7 mg/kg | Cataleptic Number ([4]; 300 mg/kg po, n=4): 0 | Cataleptic Number ([4]; 500 mg/kg po, n=4): 0 | catalepsy (in words) [4]: catalepsy was not observed | Failing Rotorod Number ([5]; 300 mg/kg po, n=4): 1 | Failing Rotorod Number ([5]; 500 mg/kg po, n=4): 4 | dose at which impairment of rotorod performance was noted [5]: 300 to 500 mg/kg

O=C(CCCN1C2CCC1c1c([nH]c3ccc(F)cc13)C2)c1ccc(F)cc1 (stereo not drawn) [Example 4 F H (CH2)3 CO 4-FPh 2, 2-fluoro-11-[4-(4-fluorophenyl)-4-oxobutyl]-5,6,7,8,9,10-hexahydro-7,10-iminocyclohept[b]indole]
Cataleptic Number ([4]; 300 mg/kg po, n=4): 0 | Cataleptic Number ([4]; 500 mg/kg po, n=3): 0 | catalepsy (in words) [4]: catalepsy was not observed | Failing Rotorod Number ([5]; 300 mg/kg po, n=4): 2 | Failing Rotorod Number ([5]; 500 mg/kg po, n=3): 1 | dose at which impairment of rotorod performance was noted [5]: 300 to 500 mg/kg

CN(C)CCCN1c2ccccc2Sc2ccc(Cl)cc21 [chlorpromazine]
binding to dopamine D-2 receptors (in words) (dopamine D-2 receptors): bind to both dopamine D-2 and sigma receptors | binding to sigma receptors (in words) (sigma receptors): bind to both dopamine D-2 and sigma receptors
